The subject of one data set is Salmonella typhimurium. The settings on record: murium.
In data set [1] the test system is Salmonella typhimurium Rb. The note with it: murium Rb.
The next data set deals with Gram-negative bacteria. The note with it: glycosylated form; cited from earlier work.
For data set [2] the following is noted: cited from earlier work.
For data set [3] the following is noted: aminopeptidase and carboxypeptidase cleavage; cited from earlier work.

Values after ≈ are worked out from the molar mass of the structure shown. Residues, ends and D or L forms follow the SMILES beside them.

For orientation: MIC means the smallest concentration in the dilution series that meets the test's criterion for growth inhibition. A low value points to inhibition by little substance. Turning to `CC[C@H](C)[C@H](NC(=O)[C@@H]1CCCN1C(=O)[C@H](CCCNC(=N)N)NC(=O)[C@@H]1CCCN1C(=O)[C@H](Cc1cnc[nH]1)NC(=O)[C@H](CO)NC(=O)[C@@H](NC(=O)[C@@H]1CCCN1C(=O)[C@H](CCCNC(=N)N)NC(=O)[C@@H]1CCCN1C(=O)[C@H](CO)NC(=O)[C@H](Cc1ccc(O)cc1)NC(=O)[C@@H]1CCCN1C(=O)[C@H](CCCNC(=N)N)NC(=O)[C@@H]1CCCN1C(=O)[C@H](CCCCN)NC(=O)CN)[C@@H](C)O)C(=O)N[C@@H](CCCNC(=N)N)C(=O)N[C@H](C(=O)O)C(C)C` [Drosocin] (H-GKPRPYSPRPTSHPRPIRV-OH), the MIC turned out to be 100 µM (≈ 220 µg/mL) against Enterobacter aerogenes; 100 µM (≈ 220 µg/mL) in the data set with Klebsiella pneumoniae; 50 µM (≈ 110 µg/mL) against Salmonella montevideo; 25 µM (≈ 55 µg/mL) against Salmonella give; 50 µM (≈ 110 µg/mL) against Salmonella infantis; 25 µM (≈ 55 µg/mL) against Salmonella panama. Moreover, the MIC with Salmonella typhimurium worked out at 25 µM (≈ 55 µg/mL); against Salmonella enteritidis, 50 µM (≈ 110 µg/mL); against Erwinia herbicola, 12.5 µM (≈ 27.5 µg/mL); in the data set on Erwinia chrysanthemi, 100 µM (≈ 220 µg/mL); against E. coli O157: H7 it was 25 µM (≈ 55 µg/mL); against Shigella sonnei, 100 µM (≈ 220 µg/mL). In data set [1], this molecule registered an MIC of 50 µM (≈ 110 µg/mL).

With “Gly-Lys-Pro-Arg-Pro-Tyr-Ser*-Pro-Arg-Pro-Thr-Ser-His-Pro-Arg-Pro-Ile-Arg-Val [native, glycosylated peptide]”, in the data set with Gram-negative bacteria, the “activity against Gram-negative bacteria” value was “moderately active” and the “time needed to kill bacteria in vivo” value was 24 h. Besides, the “antibacterial activity when injected into mice” value in data set [2] was “no antibacterial activity”. Further, the “degradation in mammalian serum” value in data set [3] is on record as “completely degraded within a four hour period”.
